Peptide text beside a SMILES is read from it. * marks the point of attachment. X1 = CC1(C)C(/C=C/C2=C(Oc3ccc(S(=O)(=O)O)cc3)C(=C\C=C3/N(CCCCCC(=O)NCCN4C(=O)CC(*)C4=O)c4ccc(S(=O)(=O)O)cc4C3(C)C)/CCC2)=[N+](CCCCS(=O)(=O)O)c2ccc(S(=O)(=O)[O-])cc21

For orientation: EC50 means the concentration that produces a half-maximal response.

The experiment concerns the target T1, murine αvβ6 (Mus musculus, UniProt P43406+Q9Z0T9).
T1 construct: purchased Bio-Techne
T1 sequence (P43406 31-988 limits assumed): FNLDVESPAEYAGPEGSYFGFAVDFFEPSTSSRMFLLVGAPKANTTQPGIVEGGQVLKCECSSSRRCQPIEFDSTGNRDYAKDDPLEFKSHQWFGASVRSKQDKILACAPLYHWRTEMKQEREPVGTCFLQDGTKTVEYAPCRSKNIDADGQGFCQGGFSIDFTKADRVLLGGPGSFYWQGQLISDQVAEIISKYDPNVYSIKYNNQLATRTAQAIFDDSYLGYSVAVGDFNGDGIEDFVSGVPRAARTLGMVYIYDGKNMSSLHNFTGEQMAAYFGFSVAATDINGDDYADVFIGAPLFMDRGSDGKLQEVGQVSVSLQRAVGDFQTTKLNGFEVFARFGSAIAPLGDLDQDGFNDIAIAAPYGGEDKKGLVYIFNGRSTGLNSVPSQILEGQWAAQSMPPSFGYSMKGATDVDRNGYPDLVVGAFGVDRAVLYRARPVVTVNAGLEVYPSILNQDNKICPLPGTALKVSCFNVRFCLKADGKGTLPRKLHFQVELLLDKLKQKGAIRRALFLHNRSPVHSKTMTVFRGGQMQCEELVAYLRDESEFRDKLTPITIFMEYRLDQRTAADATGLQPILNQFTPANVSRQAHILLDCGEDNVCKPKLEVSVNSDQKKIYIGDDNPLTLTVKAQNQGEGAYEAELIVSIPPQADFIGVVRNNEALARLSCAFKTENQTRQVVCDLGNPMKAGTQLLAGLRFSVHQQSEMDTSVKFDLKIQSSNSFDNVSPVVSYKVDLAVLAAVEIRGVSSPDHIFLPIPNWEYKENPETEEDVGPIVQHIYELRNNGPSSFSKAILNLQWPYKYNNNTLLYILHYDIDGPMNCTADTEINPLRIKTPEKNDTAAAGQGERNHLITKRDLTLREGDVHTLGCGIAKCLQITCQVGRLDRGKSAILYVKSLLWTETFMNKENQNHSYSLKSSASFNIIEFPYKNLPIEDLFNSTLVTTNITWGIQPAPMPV
T1 sequence (Q9Z0T9 22-707 limits assumed): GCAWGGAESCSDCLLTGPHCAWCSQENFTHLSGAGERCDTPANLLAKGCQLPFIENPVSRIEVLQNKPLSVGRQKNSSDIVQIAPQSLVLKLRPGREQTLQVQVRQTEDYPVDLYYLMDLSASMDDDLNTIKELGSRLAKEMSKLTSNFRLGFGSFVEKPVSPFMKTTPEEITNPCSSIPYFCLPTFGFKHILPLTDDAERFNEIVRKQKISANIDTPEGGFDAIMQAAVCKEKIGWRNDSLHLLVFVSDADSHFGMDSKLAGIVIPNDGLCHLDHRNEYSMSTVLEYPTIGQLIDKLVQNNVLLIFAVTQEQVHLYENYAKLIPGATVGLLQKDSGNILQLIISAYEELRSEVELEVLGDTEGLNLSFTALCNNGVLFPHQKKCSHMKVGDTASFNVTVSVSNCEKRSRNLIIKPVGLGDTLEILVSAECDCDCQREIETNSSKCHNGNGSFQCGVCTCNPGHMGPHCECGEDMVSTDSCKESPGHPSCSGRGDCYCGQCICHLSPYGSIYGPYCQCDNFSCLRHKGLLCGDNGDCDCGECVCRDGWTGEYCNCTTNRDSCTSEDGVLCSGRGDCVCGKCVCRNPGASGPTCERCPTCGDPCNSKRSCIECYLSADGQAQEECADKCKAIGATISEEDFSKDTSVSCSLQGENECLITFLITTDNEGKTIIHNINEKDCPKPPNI
The experiment can be described thus: direct integrin binding assay of peptide-IRDye conjugates, murine αvβ6-coated plates. Particulars: plates coated with recombinant murine αvβ6; conjugate 0.01-100 nM, 1 h; bound NIR fluorescence; mean ± SE, n = 3 experiments. The method, then:
The affinity of peptide-IRDye conjugates for αvβ6 and αvβ8 integrins was determined by a direct binding assay using microtiter plates coated with αvβ6 or αvβ8 (Bio-Techne). After 1 h of incubation, the plates were washed; bound fluorescence was quantified by scanning the plates with an Odyssey CLx near-infrared fluorescence imaging system (LI-COR).
A control conjugate with a cysteine in place of the peptide was also prepared in parallel. The identity of the purified products, called 5a-IRDye, 2a-IRDye, and Cys-IRDye, was confirmed by mass spectrometry analysis (Table S1). In addition, the purity and identity of 5a-IRDye was monitored by liquid chromatography–mass spectrometry (LC-MS). […]
that the product consist of a single peak at 230 and 735 nm with the expected molecular weight (purity >95%) (Figure S3A).
The simplified molecular-input line-entry system (SMILES) of 5a-, 2a-, Cys- and 5a-Scr- […]
The concentration of each conjugate was quantified by spectrophotometric analysis at 774 nm (molar absorption coefficient, 240,000 M-1, cm-1) (Figure S3B). The final yield of 5a-IRDye […]
Binding of peptide-IRDye conjugates to avb6 and avb8 integrin
The binding affinity of peptide-IRDye conjugates for human and murine avb6 and avb8 integrins was determined as follows: 96-well clear-bottom black microtiter plates (Corning® cat. 3601) were coated with 2 μg/ml avb6 or avb8 (50 µl/well), in Dulbecco’s phosphate-buffered saline containing Ca2+ and Mg2+ (DPBS) and left to incubate overnight at 4°C. […]
The binding of peptide-IRDye conjugates to BxPC-3, 5M7101, and HUVECs cells was analyzed as follows. […]
conjugates were added to the microtiterplates and incubated at room temperature for 1 h (see Experimental Section). After washing, bound fluorescence was measured using an Odyssey CLx (LI-COR) scanner. Representative images of the scanned plates and quantification of binding are shown. […]

`CC[C@H](C)[C@H](NC(=O)[C@H](CCCNC(=N)N)NC(=O)[C@H](CCC(=O)O)NC(=O)[C@H](CCC(=O)O)NC(=O)CNC(=O)[C@H](CCCNC(=N)N)NC(=O)[C@H](CC(C)C)NC(=O)[C@@H](NC(=O)[C@H](CCC(=O)O)NC(=O)[C@H](Cc1ccccc1)NC(=O)[C@@H](N)CSC1CC(=O)N(CCNC(=O)CCCCCN2/C(=C\C=C3\CCCC(/C=C/C4=[N+](CCCCS(=O)(=O)O)c5ccc(S(=O)(=O)[O-])cc5C4(C)C)=C3Oc3ccc(S(=O)(=O)O)cc3)C(C)(C)c3cc(S(=O)(=O)O)ccc32)C1=O)[C@@H](C)O)C(=O)N[C@@H](CC(C)C)C(=O)N[C@@H](CO)C(=O)N[C@H](C(=O)N[C@@H](CC(C)C)C(=O)N[C@@H](CCCNC(=N)N)C(=O)N[C@@H](Cc1c[nH]cn1)C(=O)N[C@@H](CCC(N)=O)C(=O)N[C@@H](CC(N)=O)C(=O)N[C@@H](CC(C)C)C(=O)N[C@@H](CC(C)C)C(=O)N[C@@H](CCCCN)C(=O)N[C@@H](CCC(=O)O)C(=O)N[C@@H](CC(C)C)C(=O)N[C@@H](CCC(N)=O)C(=O)N[C@@H](CC(=O)O)C(N)=O)[C@@H](C)CC` (stereo partly drawn) [2a-IRDye] (H-C(X1)FETLRGEERILSILRHQNLLKELQD-NH2): the EC50 was over 100 nM.

With `CC[C@H](C)[C@H](NC(=O)[C@H](CCCNC(=N)N)NC(=O)[C@H](CC(C)C)NC(=O)[C@H](CC(=O)O)NC(=O)CNC(=O)[C@H](CCCNC(=N)N)NC(=O)[C@H](CC(C)C)NC(=O)[C@@H](NC(=O)[C@H](CCC(=O)O)NC(=O)[C@H](Cc1ccccc1)NC(=O)[C@@H](N)CSC1CC(=O)N(CCNC(=O)CCCCCN2C(=CC=C3CCCC(C=CC4=[N+](CCCCS(=O)(=O)[O-])c5ccc(S(=O)(=O)O)cc5C4(C)C)=C3Oc3ccc(S(=O)(=O)O)cc3)C(C)(C)c3cc(S(=O)(=O)O)ccc32)C1=O)[C@@H](C)O)C(=O)N[C@@H](CC(C)C)C(=O)N[C@@H](CO)C(=O)N[C@H](C(=O)N[C@@H](CC(C)C)C(=O)N[C@@H](CCCNC(=N)N)C(=O)N[C@H]1Cc2cn(nn2)CCCC[C@@H](C(=O)N[C@@H](CCCCN)C(=O)N[C@@H](CCC(=O)O)C(=O)N[C@@H](CC(C)C)C(=O)N[C@@H](CCC(N)=O)C(=O)N[C@@H](CC(=O)O)C(N)=O)NC(=O)[C@H](CC(C)C)NC(=O)[C@H](CC(N)=O)NC(=O)[C@H](CCC(N)=O)NC1=O)[C@@H](C)CC` (stereo partly drawn) [5a-IRDye], the 50% effective concentration (EC50) came out at 0.9 ± 0.35 nM.

For `CC1(C)C(/C=C/C2=C(Oc3ccc(S(=O)(=O)O)cc3)C(=C\C=C3/N(CCCCCC(=O)NCCN4C(=O)CC(SC[C@H](N)C(=O)O)C4=O)c4ccc(S(=O)(=O)O)cc4C3(C)C)/CCC2)=[N+](CCCCS(=O)(=O)O)c2ccc(S(=O)(=O)[O-])cc21` (stereo partly drawn) [Cys-IRDye], the EC50 is over 100 nM.

The values are drawn from article PMC9760430, “A stapled chromogranin A-derived peptide homes in on tumors that express αvβ6 or αvβ8 integrins” (International Journal of Biological Sciences, 2023).
